The target in assay [1] is Estrogen receptor beta (Homo sapiens) (UniProt Q92731). In words: Displacement of [3H]estradiol from human ERbeta relative to estradiol. (Loss of bound radioactivity is the signal in a displacement assay; it reports binding, not function.)
In assay [2] the target is T1, Estrogen receptor (Homo sapiens) (UniProt P03372).
T1 sequence (whole entry): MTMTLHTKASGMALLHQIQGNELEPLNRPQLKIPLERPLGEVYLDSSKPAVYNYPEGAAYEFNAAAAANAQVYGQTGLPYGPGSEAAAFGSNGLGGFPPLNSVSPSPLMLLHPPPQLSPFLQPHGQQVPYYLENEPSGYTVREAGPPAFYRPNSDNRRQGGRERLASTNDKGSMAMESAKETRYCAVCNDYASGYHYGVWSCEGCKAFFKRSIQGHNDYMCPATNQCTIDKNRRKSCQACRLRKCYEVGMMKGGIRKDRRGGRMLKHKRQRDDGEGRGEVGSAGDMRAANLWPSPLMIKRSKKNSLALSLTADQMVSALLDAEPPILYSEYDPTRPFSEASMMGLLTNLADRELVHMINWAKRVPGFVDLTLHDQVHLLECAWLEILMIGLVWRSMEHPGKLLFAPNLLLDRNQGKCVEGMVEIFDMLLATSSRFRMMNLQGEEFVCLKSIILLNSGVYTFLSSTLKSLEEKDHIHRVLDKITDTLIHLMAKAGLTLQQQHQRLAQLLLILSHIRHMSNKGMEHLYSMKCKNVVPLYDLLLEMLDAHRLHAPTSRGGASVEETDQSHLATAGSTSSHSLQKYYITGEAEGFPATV
In words: Displacement of [3H]estradiol from human ERalpha relative to estradiol.

Assay [3] addresses T2, Estrogen receptor (Homo sapiens) (UniProt Q92731+P03372). In words: Ratio of RBA for human ERbeta to RBA for human ERalpha. Format: protein assay.
For a further assay, the target named is T3, Estrogen receptor (Homo sapiens, UniProt P03372).
T3 sequence (P03372 whole entry): T1 sequence (whole entry)
In words: Displacement of [3H]estradiol from human ERalpha.

In assay [4] the target is T2, Estrogen receptor (Homo sapiens). In words: Ratio of Kd for human ERalpha to Kd for human ERbeta. It counts as protein assay.
Assay [5] shares this target. In words: Ratio of RBA for human ERalpha to RBA for human ERbeta. Format: protein assay.

Chain of Estrogen receptor beta (Homo sapiens) (Q92731 whole entry): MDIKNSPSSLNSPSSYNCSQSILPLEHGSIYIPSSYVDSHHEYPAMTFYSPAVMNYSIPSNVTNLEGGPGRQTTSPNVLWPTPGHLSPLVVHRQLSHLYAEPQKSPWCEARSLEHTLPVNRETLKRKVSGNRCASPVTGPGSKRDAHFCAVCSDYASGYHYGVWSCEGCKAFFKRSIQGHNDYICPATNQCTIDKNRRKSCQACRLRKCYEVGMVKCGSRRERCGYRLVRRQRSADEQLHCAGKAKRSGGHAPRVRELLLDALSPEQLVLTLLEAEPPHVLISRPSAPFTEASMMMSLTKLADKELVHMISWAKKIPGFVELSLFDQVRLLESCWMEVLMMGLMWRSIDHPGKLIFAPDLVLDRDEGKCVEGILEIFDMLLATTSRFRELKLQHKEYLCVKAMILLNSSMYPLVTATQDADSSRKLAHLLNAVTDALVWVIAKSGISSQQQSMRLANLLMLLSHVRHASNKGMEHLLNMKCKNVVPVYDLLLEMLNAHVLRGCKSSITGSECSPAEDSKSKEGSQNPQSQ
T2 sequence (Q92731 whole entry, looked up, one chain of several): as the sequence (Q92731 whole entry) above

For the compound `CNc1c(/C=N/O)ccc(-c2cccc(O)c2)c1-c1cccc(O)c1`, the relative binding affinity (RBA) came to 0.05 in assay [1] and 0.14 in assay [2].
For the compound `CNc1c(/C=N/O)ccc(-c2ccc(C)cc2)c1-c1ccc(C)cc1`, the Selectivity ratio in assay [3] amounted to 2. Also, the relative binding affinity (RBA) in assay [1] came to 1.86; in assay [2] it was 0.95.
A word on the Kd: it is the free concentration of one partner at which half of the binding sites on the other are occupied at equilibrium, for simple one-to-one binding. A high value points to weaker binding. `CNc1c(/C=N/O)ccc(-c2ccc(O)cc2)c1-c1ccccc1`: the Kd at Estrogen receptor was determined as 3.7 nM. Moreover, the relative binding affinity (RBA) in assay [1] stood at 1.11; in assay [2], 5.38.
In the case of `CNc1c(/C=N/O)ccc(-c2ccc(OC)cc2)c1-c1ccc(OC)cc1`, the relative binding affinity (RBA) in assay [1] worked out at 0.47; in assay [2] it was 2.33.
For `CNc1c(/C=N/O)ccc(-c2ccccc2)c1-c1ccc(O)cc1`, in that order: 0.72 and 1.17.
On to `CNc1c(/C=N/O)ccc(-c2ccc(O)cc2)c1-c1ccc(O)cc1`, for which the Selectivity ratio in assay [4] is 36. In addition, the relative binding affinity (RBA) turned out to be 0.14 in assay [1] and 1.96 in assay [2].
Regarding `CNc1c(/C=N/O)ccc(-c2cccc(C)c2)c1-c1cccc(C)c1`, the relative binding affinity (RBA) in assay [1] turned out to be 2.13; in assay [2] it was 3.91. The Selectivity ratio in assay [5] was found to be 2.
As to `CNc1c(/C=N/O)ccc(-c2cccc(OC)c2)c1-c1cccc(OC)c1`, the relative binding affinity (RBA) in assay [1] is 0.14; in assay [2], 0.65.

These data come from ChEMBL document CHEMBL1145331, “Synthesis of anthranylaldoxime derivatives as estrogen receptor ligands and computational prediction of binding modes” (J Med Chem, 2006).
